According to PubChem BioAssay (NCI):
“And” between values parts separate entries of the source, which are not always exact repeats. Identical values can stand only once.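 Test compounds were applied to cells in 96-well plates for 48 hours at 5 doses. Here, GI50 denotes the concentration required for 50% inhibition of growth. TGI marks complete inhibition of growth.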

What was measured:
Test in all cases: growth of human tumour cells (NCI), 48 h
[1] = system: 786-0 renal
[2] = system: A498 renal
[3] = system: HCT-15 colon
[4] = system: HOP-62 NSCLC
[5] = system: HOP-92 NSCLC
[6] = system: HS 578T breast
[7] = system: KM12 colon
[8] = system: OVCAR-8 ovarian
[9] = system: SK-MEL-2 melanoma
[10] = system: U251 CNS

| Structure (SMILES) | GI50 [1] [µM] | TGI [1] [µM] | GI50 [2] [µM] | TGI [2] | GI50 [3] [µM] | TGI [3] [µM] | GI50 [4] [µM] | TGI [4] [µM] | GI50 [5] [µM] | TGI [5] [µM] | GI50 [6] [µM] | TGI [6] [µM] | GI50 [7] [µM] | TGI [7] | GI50 [8] [µM] | TGI [8] [µM] | GI50 [9] [µM] | TGI [9] [µM] | GI50 [10] [µM] | TGI [10] [µM] |
| --- | --- | --- | --- | --- | --- | --- | --- | --- | --- | --- | --- | --- | --- | --- | --- | --- | --- | --- | --- | --- |
| COc1ccc(/C=C(\C#N)n2nnc3ccccc32)cc1 | 0.63 | 7.22 | 0.188 | 0.779 µM | 0.0682 | > 100 | 0.486 | 25.8 | 0.272 | 3.47 | 0.396 | > 100 | 0.0948 | > 21.7 µM | 0.416 | > 100 | 0.437 | 51.1 | 0.414 | > 32.6 |
| COc1cc(/C=N/NC(=O)c2cnn3c2NC(c2ccccc2)C3)ccc1Oc1ccccc1 (stereo not drawn) | 1.19 | 5.65 | 1.18 | 7.03 µM | 0.559 | 3.15 | 1.18 | 4.34 | 2.06 | 8.58 | 1.65 | 5.22 | 0.528 | 3 µM | 2.57 | 12.2 | 1.14 | 4.89 | 1.31 | 3.59 |
| O=P(CCCCP(=O)(c1ccccc1)c1ccccc1)(c1ccccc1)c1ccccc1.[Cl][Sn]([Cl])([c]1ccccc1)[c]1ccccc1 | 1.07 | 2.48 | 2 | 3.76 µM | 1.23 | 3.02 | 0.462 | 2.67 | 1.56 | 3.18 | 4.1 | > 50.6 | 3.05 | 10.5 µM | 2.3 | 6.28 | 1.74 | 3.39 | 2 | 4.77 |
| Cc1cc(=O)[nH]c2cc3c(c4c(n3Cc3ccc(Cl)cc3Cl)CC(C)(C)CC4=O)c(O)c12 | 0.0145 | 0.134 | > 100 | > 100 µM | > 100 | > 100 | 77.7 | > 100 | 54.2 | > 100 | 49.2 | > 100 | > 100 | > 100 µM | > 100 | > 100 | > 100 | > 100 | 62.6 | > 100 |
| C=C1C(=O)O[C@H]2[C@H](OC(C)=O)[C@@H](C)CCC/C(C)=C/CC[C@@]3(C)O[C@@H]3C[C@@H]12 |  | 3.56 |  | 8.76 µM |  | 10.1 |  | 43.6 |  | 5.54 |  | 13.2 |  | 18.8 µM |  | 2.63 |  | 19.5 |  | 21.7 |
| O=c1[nH]c(=O)c2cc(C3CC(O)C(CO)O3)ccc2[nH]1 (stereo not drawn) | > 100 | > 100 | > 100 | > 100 µM | 93.3 | > 100 | > 100 | > 100 | > 100 | > 100 | > 100 | > 100 |  |  | > 100 | > 100 | > 100 | > 100 | > 100 | > 100 |
| COc1ccc(NC(=O)COCCOCCNC[C@@H]2C(=O)O[C@H]3[C@H]2CC/C(COC(=O)OC/C2=C/CC[C@@]4(C)O[C@H]4[C@H]4OC(=O)[C@@H](CN(C)C)[C@@H]4CC2)=C\CC[C@@]2(C)O[C@@H]32)c(O)c1C(N)=O | 6.17 | 13.7 | 16.6 | > 50 µM | 1.44 | 6.14 | 39.9 | > 50 | 1.71 | 6.93 | 14.7 | > 50 | 9.72 | 22.5 µM | 3.56 | 12 | 9.69 | 20.3 | 8.87 | 18 |
| C=C(C)[C@@H]1CC[C@]2(C)[C@H](CC=C3[C@@H]4[C@@H](C)[C@H](C)CC[C@]4(C(N)=O)CC[C@]32C)[C@@]1(C)CCC#N | 2.26 | 5.75 | 11 | 44.5 µM | 3.44 | > 100 | 7.71 | > 100 | 2.57 | 9.05 | 11.6 | 88.8 | 3.47 | 23.2 µM | 5.38 | 27.5 | 6.98 | 23.2 | 4.32 | 18.3 |
| COC(=O)CCC1CCC(c2cc(F)ccc2F)(S(=O)(=O)c2ccc(Cl)cc2)CC1 (stereo not drawn) | > 100 | > 100 | 40.4 | > 100 µM | > 100 | > 100 | > 100 | > 100 | 15.4 | > 100 | > 100 | > 100 | 62.1 | > 100 µM | > 100 | > 100 | 62 | > 100 | > 100 | > 100 |
| C=C1C(=O)O[C@H]2[C@H]1CCC(/C=N/c1ncc(Br)cc1N)=C\CC[C@@]1(C)O[C@@H]21 | 1.72 | 3.52 | 4.82 | 17.5 µM | 1.49 | 4.01 | 10.8 | 24 | 1.31 | 3.74 | 5.65 | 40.1 | 5.07 | 20.2 µM | 2.98 | 10.9 | 1.96 | 4.87 | 5.06 | 18.1 |
| COc1ccc(S(=O)(=O)Nc2cc(/C=C\c3cc(OC)c(OC)c(OC)c3)ccc2OC)cc1 | 0.361 | 95.6 | 0.0357 | 0.382 µM | 0.0623 | > 100 | 0.041 | > 100 | 0.0974 | 12 | 0.226 | > 100 | 0.0738 | > 100 µM | 0.276 | > 100 | 0.0803 | 93 | 0.108 | > 100 |
| N#CC1=C(N)Oc2c(sc3c(Br)cccc23)C1c1ccc(Br)cc1 (stereo not drawn) | 0.776 | 2.96 | 0.633 | 9.56 µM | 0.601 | 11.4 | 0.41 | 2.62 | 1.43 | 5.56 | 2.44 | 13.5 | 0.434 | 10.2 µM | 0.588 | 3.09 | 0.434 | 4 | 0.544 | 2.05 |
| COc1ccc(-n2cc(-c3cc(OC)c(OC)c(OC)c3)nc2SCc2ccccc2)cc1OC | > 100 | > 100 | > 100 | > 100 µM | 33.3 | > 100 | > 100 | > 100 | 6.45 | > 29.5 | > 100 | > 100 | > 100 | > 100 µM | > 83.6 | > 100 | > 100 | > 100 | 50 | > 100 |
| CCN1Cc2c(ccc(F)c2C#N)O[C@@H](C)CNC(=O)c2c(N)nn3ccc1nc23 | 2.85 | 15.9 | 0.712 | 3.9 µM | 2.46 | 14.9 | 2.76 | 20.1 | 0.479 | 3.65 | 0.652 | 4.71 |  | 69.7 µM | 4.33 | > 100 | 1.72 | 5.22 | 5.34 | 32.4 |
| Oc1ccccc1CNCC12CC3CC(CC(C3)C1)C2 | 16.2 | 33.5 | 10.4 | 31.5 µM | 24.8 | 91.1 | 28.8 | 84 | 9.64 | 37.9 | 19.4 | 74.4 | 23.7 | 66 µM | 79.9 | > 100 | 20.2 | 41.2 | 20.7 | 49.3 |
| Nc1nc(N)c2c(n1)NC(c1ccc(F)cc1)C1CCc3ccccc3C1=N2 (stereo not drawn) | 6.9 | 20.1 | 2.87 | 9.08 µM | 3.99 | 16.5 | 6 | 19.8 | 1.17 | 6.59 | 10.2 | 34.6 | 4.93 | 17 µM | 8.07 | 27 | 5.73 | 19.6 | 4.29 | 16.9 |
| Cc1cc(Cc2cc(C)cc(C(C)(C)C)c2O)c(O)c(Cc2cc(C)cc(C(C)(C)C)c2O)c1 |  | 9.09 |  | 7.2 µM |  | 11.3 |  | 7.94 |  | 9.36 |  | 5.93 |  | 10 µM |  | 15.1 |  | 6.7 |  | 10.3 |
| CCC[CH2][Sn]([CH2]CCC)([CH2]CCC)[O]C(=O)c1ccc(Cl)cc1Cl | 0.13 | 0.259 | 0.11 | 0.236 µM | 0.173 | 0.419 | 0.164 | 0.319 | 0.102 | 0.301 | 0.173 | 0.538 | 0.139 | 0.283 µM | 0.183 | 0.373 | 0.149 | 0.333 | 0.17 | 0.33 |
| OC(CNCC1CCCO1)Cn1c2ccc(Cl)cc2c2cc(Cl)ccc21 (stereo not drawn) | 1.59 | 3.08 | 1.06 | 8.83 µM | 1.67 | 3.26 | 1.72 | 3.39 | 2.15 | 6.24 | 2.14 | 6.93 | 1.81 | 3.27 µM | 2.02 | 4.22 | 2.29 | 4.28 | 1.65 | 3.05 |
| CCCCCCCCCCC(C(O)c1ccccc1)N1CCCCC1 (stereo not drawn) | 1.78 | 3.25 | 1.92 | 6.77 µM | 1.63 | 4.38 | 1.91 | 3.78 | 1.82 | 3.83 | 2.02 | 4.52 | 1.29 | 2.72 µM | 3.29 | 13 | 2.25 | 4.84 | 1.74 | 3.46 |
| O=C1C2C(c3ccccc3)NC(c3ccccc3)C1C(c1ccccc1)NC2c1ccccc1 (stereo not drawn) |  | > 100 |  | > 100 µM |  | > 100 |  | > 100 |  | > 100 |  | > 100 |  | > 100 µM |  | > 100 |  | > 100 |  | > 100 |
| O=C(O)C1C(C(=O)O)C23CC2(C(=O)O)C2(C(=O)O)CCC3=C3CCCC312 (stereo not drawn) |  | > 100 |  | 62.6 µM |  | > 100 |  | 22.4 |  | 36.5 |  | 7.8 |  | 88.4 µM |  | 64.4 |  | 38.8 |  | 23.8 |
| CNC(=O)CC1NC(=O)c2csc(n2)-c2ccc(-c3nc(C4=NC(C(=O)N5CCCC5C(N)=O)CO4)cs3)nc2-c2csc(n2)-c2csc(n2)C(C(C)C)NC(=O)CNC(=O)c2csc(n2)C(C(C)C)NC(=O)c2nc1sc2C (stereo not drawn) | > 25 | > 25 | > 25 | 5.08 µM and > 25 µM | > 25 | > 25 |  |  | > 25 | > 25 | < 0.001 |  | > 25 | 4.34 µM and > 25 µM | > 25 | > 25 |  |  | > 25 | > 25 |
| O=C(Nc1ccc2[nH]c(=S)sc2c1)Nc1ccccc1F | 51.6 | > 100 | 40.5 | > 100 µM | 20.4 | > 100 | 37.2 | > 100 |  |  | 37.6 | > 100 | 24.7 | > 100 µM | 56.5 | > 100 | 26.7 | > 100 | 57.5 | > 100 |
| COc1cc(NC(=O)CSc2nc3ccc(C)cc3c(=O)n2Cc2ccccc2)cc(OC)c1OC | 3.2 | 14.6 | 1.01 | 5.55 µM | > 100 | > 100 | 2.3 | 5.8 |  |  | 3.23 | > 100 | 29.9 | > 100 µM | 4.42 | > 100 | 3.38 | 10.6 | 3.93 | 24 |
